Assay results reported in ChEMBL document CHEMBL1201862, “PubChem BioAssay data set” (2004).
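Tested at 5 concentrations; 48 h exposure; 96-well plates; endpoints linearly interpolated, else capped at highest concentration. At the GI50, growth is halved.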 Activity calls are given as the source filed them. No stated cut-off is given here; in the data, active = GI50 up to about 1.1 µM and inactive = higher.

Tests used:
Assay in all cases: NCI tumour cell line growth inhibition, 48 h
786-0 = tested on: 786-0
A498 = tested on: A498
ACHN = tested on: ACHN
BT-549 = tested on: BT-549
CAKI-1 = tested on: CAKI-1
CCRF-CEM = tested on: CCRF-CEM
DU-145 = tested on: DU-145
EKVX = tested on: EKVX
HCC 2998 = tested on: HCC 2998
HOP-92 = tested on: HOP-92
K562 = tested on: K562
MDA-MB-231 = tested on: MDA-MB-231
MDA-MB-435 = tested on: MDA-MB-435
OVCAR-3 = tested on: OVCAR-3
OVCAR-5 = tested on: OVCAR-5
RPMI-8226 = tested on: RPMI-8226
SK-MEL-5 = tested on: SK-MEL-5
SNB-19 = tested on: SNB-19
SW-620 = tested on: SW-620
UACC-257 = tested on: UACC-257

Measured: GI50

O=C(N/N=C\c1ccc([N+](=O)[O-])cc1)c1ccccc1Nc1ccccc1C(=O)N/N=C/c1ccc([N+](=O)[O-])cc1
inactive: 786-0 > 100 µM | A498 > 100 µM | ACHN > 100 µM | BT-549 > 100 µM | CAKI-1 > 100 µM | CCRF-CEM 85.7 µM | DU-145 > 100 µM | EKVX > 100 µM | HCC 2998 > 100 µM | HOP-92 > 100 µM | K562 > 100 µM | MDA-MB-231 25.8 µM | MDA-MB-435 > 100 µM | OVCAR-3 > 100 µM | OVCAR-5 76.4 µM | RPMI-8226 > 100 µM | SK-MEL-5 > 100 µM | SNB-19 > 100 µM | SW-620 > 100 µM | UACC-257 > 100 µM

N#CC1=CNc2sccc2S1(=O)=O
inactive: 786-0 > 100 µM | A498 > 100 µM | ACHN > 100 µM | BT-549 > 100 µM | CAKI-1 > 100 µM | DU-145 > 100 µM | EKVX > 100 µM | HCC 2998 39.8 µM | HOP-92 > 100 µM | MDA-MB-231 > 100 µM | MDA-MB-435 89.7 µM | OVCAR-3 > 100 µM | OVCAR-5 > 100 µM | RPMI-8226 > 100 µM | SK-MEL-5 76.4 µM | SNB-19 > 100 µM | SW-620 > 100 µM | UACC-257 > 100 µM

CC(=O)OCC1OC(n2c(C)cc(C)c(C#N)c2=S)C(OC(C)=O)C(OC(C)=O)C1OC(C)=O (stereo not drawn)
inactive: 786-0 > 100 µM | A498 > 100 µM | ACHN > 100 µM | BT-549 > 100 µM | CAKI-1 > 100 µM | CCRF-CEM > 100 µM | DU-145 > 100 µM | HCC 2998 > 100 µM | HOP-92 > 100 µM | K562 > 100 µM | MDA-MB-231 > 100 µM | MDA-MB-435 > 100 µM | OVCAR-3 > 100 µM | OVCAR-5 > 100 µM | RPMI-8226 > 100 µM | SK-MEL-5 > 100 µM | SNB-19 > 100 µM | UACC-257 > 100 µM

COC(=O)c1cccc(OC)c1C#Cc1c(OC)cccc1OC
inactive: 786-0 > 100 µM | A498 > 100 µM | ACHN > 100 µM | BT-549 > 100 µM | CAKI-1 > 100 µM | CCRF-CEM > 100 µM | DU-145 > 100 µM | EKVX > 100 µM | HCC 2998 > 100 µM | HOP-92 > 100 µM | K562 > 100 µM | MDA-MB-231 > 100 µM | MDA-MB-435 47.8 µM | OVCAR-3 > 100 µM | OVCAR-5 > 100 µM | RPMI-8226 > 100 µM | SK-MEL-5 > 100 µM | SNB-19 > 100 µM | SW-620 > 100 µM | UACC-257 > 100 µM

Cc1c2c(OCCCCN3CCN(c4ncccn4)CC3)nn(C)c(=O)c2c(C)n1-c1ccccc1
inactive: 786-0 18.1 µM | A498 16.9 µM | ACHN 17.4 µM | BT-549 19.3 µM | CAKI-1 16.9 µM | CCRF-CEM 31.1 µM | DU-145 17.1 µM | EKVX 19.1 µM | HCC 2998 20 µM | HOP-92 16.4 µM | K562 30.8 µM | MDA-MB-231 16 µM | MDA-MB-435 18.7 µM | OVCAR-3 19.5 µM | OVCAR-5 20.5 µM | RPMI-8226 20.2 µM | SK-MEL-5 13.8 µM | SNB-19 19 µM | SW-620 25.6 µM | UACC-257 18.7 µM

CC1C2CC(CC2=O)C1(C)C (stereo not drawn)
inactive: 786-0 > 100 µM | A498 > 100 µM | ACHN > 100 µM | BT-549 > 100 µM | CAKI-1 > 100 µM | CCRF-CEM > 100 µM | DU-145 > 100 µM | EKVX > 100 µM | HCC 2998 > 100 µM | HOP-92 > 100 µM | K562 > 100 µM | MDA-MB-231 > 100 µM | MDA-MB-435 > 100 µM | OVCAR-3 > 100 µM | OVCAR-5 > 100 µM | SK-MEL-5 > 100 µM | SNB-19 > 100 µM | SW-620 > 100 µM | UACC-257 > 100 µM

COc1c(C)c(OCC=C(C)C)cc(CO)c1CO
inactive: 786-0 7.23 µM | A498 44.1 µM | ACHN 67.8 µM | BT-549 42.9 µM | CAKI-1 46.8 µM | CCRF-CEM 44.9 µM | DU-145 92 µM | EKVX 77.8 µM | HCC 2998 82.6 µM | HOP-92 > 100 µM | K562 26.3 µM | MDA-MB-231 69.8 µM | MDA-MB-435 55.3 µM | OVCAR-5 > 100 µM | RPMI-8226 20.4 µM | SK-MEL-5 22.6 µM | SNB-19 88.3 µM | SW-620 74.5 µM | UACC-257 81.8 µM

CC1C2CC(CC23OCC(CCl)O3)C1(C)C (stereo not drawn)
inactive: 786-0 > 100 µM | A498 > 100 µM | ACHN > 100 µM | BT-549 > 100 µM | CAKI-1 > 100 µM | CCRF-CEM > 100 µM | DU-145 > 100 µM | EKVX > 100 µM | HCC 2998 > 100 µM | HOP-92 > 100 µM | K562 > 100 µM | MDA-MB-231 > 100 µM | MDA-MB-435 > 100 µM | OVCAR-3 > 100 µM | RPMI-8226 > 100 µM | SK-MEL-5 > 100 µM | SNB-19 > 100 µM | SW-620 > 100 µM | UACC-257 > 100 µM
